The text below walks through data of patent US12459951B2, “Compounds that interact with RAS superfamily proteins for treatment of cancers, inflammatory diseases, rasopathies, and fibrotic disease” (SHY Therapeutics, LLC, priority 2022, dated 2025).

Usually solubility stands for how much of the substance goes into solution per volume.

Data set [1] in a line: Kinetic Solubility Assay in pH 7.4 Buffer + 2% DMSO. The format is physicochemical. Particulars: phosphate-buffered saline pH 7.4 with 2% DMSO, aqueous buffer, kinetic from dmso stock, 25° C., two hours. The gist of the method: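 Compound from 20 mM DMSO stock diluted to nominal 400 μM in PBS pH 7.4 with 2% DMSO, in duplicate, shaken 2 h at 25° C., then filtered. Filtrate quantified by UV absorbance (230-550 nm) against 10-200 μM calibration curves; effective range ~2-400 μM.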

A short description of data set [2]: Mouse Liver Microsome Metabolic Stability Assay. It is filed as in vitro ADME. As to conditions: pH 7.4, Mouse liver microsomes, 37° C., NADPH, read-out: t½. The method in brief: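 Compounds (2 μM, 1.6% solvent) incubated at 37 °C with mouse liver microsomes (0.42 mg/mL) in 100 mM phosphate pH 7.4 with an NADPH-regenerating system; five time points over 40 min, duplicates, LC-MS/MS. kel, t1/2 and Clint from linear regression of ln(AUC) vs. time; no-NADPH controls.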
(In general: Liver microsomes are vesicles of endoplasmic reticulum, rich in cytochrome P450 enzymes.)

In the next data set the target is T1, cdc42 (Homo sapiens, UniProt P60953).
T1 construct: made in house
Briefly: Cdc42 GTP Binding Domain Inhibition Assay. Particulars: read-out: Cdc42: % inh. How it is done:
Protocol for Cdc42 and Rheb GTP Binding Domain Inhibition Assay
The following method was developed as specific assay for cdc42 and Rheb proteins.
• 25 mM Tris-HCl, pH 7.4 • 27 mM KCl • 137 mM NaCl • 1 mM MgCl2 • 1 mM DTT Buffer-II: • 50 mM Tris-HCl, pH 7.0 • 1 mM MgCl2 • 1 mM DTT
The small GTPases proteins cdc42 and Rheb were expressed as His-tagged proteins. For the assay, the cdc42 and Rheb purified small GTPases proteins were diluted in Buffer-I or Buffer-II to a final concentration of 10-30 μg/mL. 200 μL of each diluted protein was added to a nickel-coated 96-well plate and incubated overnight at […]. Then the protein solution was discarded and 200 μL of Buffer-I or Buffer-II was added to each well in the presence of 1% DMSO. Compounds to be tested were added to the protein-coated wells at final concentration of 20 μM, and incubated for 3 hours at room temperature with and without 10-30 μg/mL of Sos added to the final hour of the incubation. When performing IC50 measurements a serial dilution of all tested concentrations was added. Then Cy3-GTP or Cy5-GTP was added to each well to a final concentration of 100 nM. The labeled GTP was incubated for 45 minutes at room temperature. Following GTP incubation, wells were washed 3× in Buffer-I or Buffer-II and 200 μL of Buffer-I or Buffer-II was added to each well. Following washes, the amount of bound labeled-GTP was measured using a SpectraMax M3 (Molecular Devices).

T1 sequence (P60953 whole entry): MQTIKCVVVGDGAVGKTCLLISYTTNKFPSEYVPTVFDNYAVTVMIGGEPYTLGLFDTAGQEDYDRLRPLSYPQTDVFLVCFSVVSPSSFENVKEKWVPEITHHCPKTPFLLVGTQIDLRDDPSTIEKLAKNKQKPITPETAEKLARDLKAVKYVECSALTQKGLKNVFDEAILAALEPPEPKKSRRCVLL

Turning to `CCOc1cc(Nc2nc(-c3nccn3C)nn3cc(-c4ccn(C)n4)c(C)c23)n[nH]1` [Compound 260, N-(5-Ethoxy-1H-pyrazol-3-yl)-5-methyl-2-(1-methyl-1H-imidazol-2-yl)-6-(1-methyl-1H-pyrazol-3-yl)pyrrolo[2,1-f][1,2,4]triazin-4-amine], the solubility at 2 h in data set [1] was < 10 µM. For the same molecule, in data set [2], the half-life at 2 µM was < 10 min.

Regarding `COc1cc(-c2cn3nc(-c4nccn4C)nc(Nc4cc(OC)ncn4)c3c2C)ccn1` [Compound 50, 6-(2-Methoxypyridin-4-yl)-N-(6-methoxypyrimidin-4-yl)-5-methyl-2-(1-methyl-1H-imidazol-2-yl)pyrrolo[2,1-f][1,2,4]triazin-4-amine], at cdc42, the inhibition at 20 µM lay within 26 to 49%. Moreover, the solubility at 2 h in data set [1] is < 10 µM.

`Cc1c(-c2ccn(C(C)C)n2)cn2nc(-c3nccn3C)nc(Nc3ccccn3)c12` [Compound 57, 6-(1-Isopropyl-1H-pyrazol-3-yl)-5-methyl-2-(1-methyl-1H-imidazol-2-yl)-N-(pyridin-2-yl)pyrrolo[2,1-f][1,2,4]triazin-4-amine]: the inhibition at 20 µM on cdc42 is 76 to 100%. The solubility at 2 h in data set [1] lay in the range of 10 to 30 µM.

Regarding `Cc1c(-c2ccn(C)n2)cn2nc(-c3nccn3C)nc(Nc3cc(-c4cccnc4)ccn3)c12` [Compound 250, N-([3,4′-Bipyridin]-2′-yl)-5-methyl-2-(1-methyl-1H-imidazol-2-yl)-6-(1-methyl-1H-pyrazol-3-yl)pyrrolo[2,1-f][1,2,4]triazin-4-amine], the solubility at 2 h in data set [1] was < 10 µM. Also, the half-life at 2 µM in data set [2] is < 10 min.

Regarding `COc1cc(Nc2nc(-c3nccn3C)nn3cc(-c4ccn(C)n4)c(C)c23)n[nH]1` [Compound 252, N-(5-Methoxy-1H-pyrazol-3-yl)-5-methyl-2-(1-methyl-1H-imidazol-2-yl)-6-(1-methyl-1H-pyrazol-3-yl)pyrrolo[2,1-f][1,2,4]triazin-4-amine], the solubility at 2 h in data set [1] is < 10 µM. Also, in data set [2], the half-life at 2 µM is < 10 min.

For `Cc1c(-c2ccn(C(C)C)n2)cn2nc(-c3nccn3C)nc(Nc3nnco3)c12` [Compound 59, N-(6-(1-Isopropyl-1H-pyrazol-3-yl)-5-methyl-2-(1-methyl-1H-imidazol-2-yl)pyrrolo[2,1-f][1,2,4]triazin-4-yl)-1,3,4-oxadiazol-2-amine], on cdc42, the inhibition at 20 µM is 50 to 75%. In addition, the solubility at 2 h in data set [1] was < 10 µM.

For the molecule `COc1cc(Nc2nc(-c3nccn3C)nn3cc(-c4ccn(C)n4)c(C)c23)ncn1` [Compound 63, N-(6-Methoxypyrimidin-4-yl)-5-methyl-2-(1-methyl-1H-imidazol-2-yl)-6-(1-methyl-1H-pyrazol-3-yl)pyrrolo[2,1-f][1,2,4]triazin-4-amine], at cdc42, the inhibition at 20 µM fell in the range of 76 to 100%. Also, the solubility at 2 h in data set [1] was < 10 µM.

For the molecule `Cc1cc(Nc2nc(-c3nccn3C)nn3cc(-c4ccn(C)n4)c(C)c23)n[nH]1` [Compound 255, 5-Methyl-2-(1-methyl-1H-imidazol-2-yl)-6-(1-methyl-1H-pyrazol-3-yl)-N-(5-methyl-1H-pyrazol-3-yl)pyrrolo[2,1-f][1,2,4]triazin-4-amine], the solubility at 2 h in data set [1] is > 30 µM. In addition, in data set [2], the half-life at 2 µM is > 10 min.

As to `Cc1c(-c2ccn(C)n2)cn2nc(-c3nccn3C)nc(Nc3cc(C(C)C)[nH]n3)c12` [Compound 268, N-(5-Isopropyl-1H-pyrazol-3-yl)-5-methyl-2-(1-methyl-1H-imidazol-2-yl)-6-(1-methyl-1H-pyrazol-3-yl)pyrrolo[2,1-f][1,2,4]triazin-4-amine], the solubility at 2 h in data set [1] is < 10 µM. In addition, the half-life at 2 µM in data set [2] is < 10 min.

Consider `Cc1c(-c2ccn(C(C)C)n2)cn2nc(-c3nccn3C)nc(Nc3ncccn3)c12` [Compound 54, 6-(1-Isopropyl-1H-pyrazol-3-yl)-5-methyl-2-(1-methyl-1H-imidazol-2-yl)-N-(pyrimidin-2-yl)pyrrolo[2,1-f][1,2,4]triazin-4-amine], for which, at cdc42, the inhibition at 20 µM lay within 50 to 75%. In addition, the solubility at 2 h in data set [1] was < 10 µM.

As for `Cc1c(-c2ccn(C)n2)cn2nc(-c3nccn3C)nc(Nc3cc(-c4ccccn4)[nH]n3)c12` [Compound 265, 5-Methyl-2-(1-methyl-1H-imidazol-2-yl)-6-(1-methyl-1H-pyrazol-3-yl)-N-(5-(pyridin-2-yl)-1H-pyrazol-3-yl)pyrrolo[2,1-f][1,2,4]triazin-4-amine], the solubility at 2 h in data set [1] is < 10 µM. In addition, the half-life at 2 µM in data set [2] is > 10 min.

As for `Cc1c(-c2ccn(C(C)C)n2)cn2nc(-c3nccn3C)nc(Nc3cnccn3)c12` [Compound 62, 6-(1-Isopropyl-1H-pyrazol-3-yl)-5-methyl-2-(1-methyl-1H-imidazol-2-yl)-N-(pyrazin-2-yl)pyrrolo[2,1-f][1,2,4]triazin-4-amine], on cdc42, the inhibition at 20 µM was 1 to 25%. In addition, in data set [1], the solubility at 2 h was < 10 µM.

With `Cc1c(-c2ccn(C(C)C)n2)cn2nc(-c3nccn3C)nc(Nc3ccncn3)c12` [Compound 55, 6-(1-Isopropyl-1H-pyrazol-3-yl)-5-methyl-2-(1-methyl-1H-imidazol-2-yl)-N-(pyrimidin-4-yl)pyrrolo[2,1-f][1,2,4]triazin-4-amine], on cdc42, the inhibition at 20 µM was 50 to 75%. The solubility at 2 h in data set [1] is 10 to 30 µM.

As to `Cc1c(-c2ccn(C)n2)cn2nc(-c3nccn3C)nc(Nc3cc(-c4ccccn4)ccn3)c12` [Compound 248, N-([2,4′-Bipyridin]-2′-yl)-5-methyl-2-(1-methyl-1H-imidazol-2-yl)-6-(1-methyl-1H-pyrazol-3-yl)pyrrolo[2,1-f][1,2,4]triazin-4-amine], the solubility at 2 h in data set [1] is < 10 µM. Moreover, the half-life at 2 µM in data set [2] was > 10 min.

As for `COc1ccnc(Nc2nc(-c3nccn3C)nn3cc(-c4ccn(C(C)C)n4)c(C)c23)c1` [Compound 58, 6-(1-Isopropyl-1H-pyrazol-3-yl)-N-(4-methoxypyridin-2-yl)-5-methyl-2-(1-methyl-1H-imidazol-2-yl)pyrrolo[2,1-f][1,2,4]triazin-4-amine], the inhibition at 20 µM at cdc42 fell in the range of 76 to 100%. The solubility at 2 h in data set [1] lay within 10 to 30 µM.

Take `Cc1[nH]nc(Nc2nc(-c3nccn3C)nn3cc(-c4ccn(C)n4)c(C)c23)c1C` [Compound 267, N-(4,5-Dimethyl-1H-pyrazol-3-yl)-5-methyl-2-(1-methyl-1H-imidazol-2-yl)-6-(1-methyl-1H-pyrazol-3-yl)pyrrolo[2,1-f][1,2,4]triazin-4-amine]: the solubility at 2 h in data set [1] lay in the range of 10 to 30 µM. In addition, the half-life at 2 µM in data set [2] is > 10 min.

On to `COc1ccnc(Nc2nc(-c3nccn3C)nn3cc(-c4ccn(C(C)C)n4)c(C)c23)n1` [Compound 53, 6-(1-Isopropyl-1H-pyrazol-3-yl)-N-(4-methoxypyrimidin-2-yl)-5-methyl-2-(1-methyl-1H-imidazol-2-yl)pyrrolo[2,1-f][1,2,4]triazin-4-amine], for which the inhibition at 20 µM at cdc42 is 50 to 75%. The solubility at 2 h in data set [1] was in the range of 10 to 30 µM.
